Reference: ChEMBL document CHEMBL4393715, “Design, synthesis and biological evaluation of the thioether-containing lenalidomide analogs with anti-proliferative activities” (Eur J Med Chem, 2019)
pIC50: −log10 of the molar value.

Key:
[1] = test system: PBMC; experiment: Antiinflammatory activity in human PBMC cells assessed as reduction in LPS-induced TNF-alpha production preincubated for 1 hr followed by LPS addition and measured after 18 to 20 hrs by ELISA; type: functional, cell-based
[2] = test system: THP-1; experiment: Antiproliferative activity against human THP1 cells measured after 168 hrs by CellTiter96 Aqueous non-radioactive cell proliferation assay; type: functional, cell-based; conditions: THP-1, 168 h
[3] = test system: PBMC; experiment: Cytotoxicity against human PBMC cells by CellTiter96 Aqueous non-radioactive cell proliferation assay; type: cell-based
[4] = test system: Raji; experiment: Antiproliferative activity against human Raji cells measured after 168 hrs by CellTiter96 Aqueous non-radioactive cell proliferation assay; type: functional, cell-based
[5] = test system: Kasumi 1; experiment: Antiproliferative activity against human Kasumi-1 cells measured after 168 hrs by CellTiter96 Aqueous non-radioactive cell proliferation assay; type: functional, cell-based; conditions: Kasumi 1, 168 h
[6] = test system: MM1.S; experiment: Antiproliferative activity against human MM1S cells measured after 168 hrs by CellTiter96 Aqueous non-radioactive cell proliferation assay; type: functional, cell-based
[7] = test system: JeKo-1; experiment: Antiproliferative activity against human JeKo1 cells measured after 72 hrs by CellTiter96 Aqueous non-radioactive cell proliferation assay; type: functional, cell-based; conditions: JeKo-1, 72 h
[8] = test system: Z-138; experiment: Antiproliferative activity against human Z138 cells measured after 72 hrs by CellTiter96 Aqueous non-radioactive cell proliferation assay; type: functional, cell-based; conditions: Z-138, 72 h
[9] = test system: RPMI-8226; experiment: Antiproliferative activity against human RPMI8226 cells measured after 72 hrs by CellTiter96 Aqueous non-radioactive cell proliferation assay; type: functional, cell-based; conditions: RPMI-8226, 72 h
[10] = test system: U-266; experiment: Antiproliferative activity against human U266 cells measured after 72 hrs by CellTiter96 Aqueous non-radioactive cell proliferation assay; type: functional, cell-based; conditions: U-266, 72 h
[11] = Antiproliferative activity against human Mino cells measured after 72 hrs by CellTiter96 Aqueous non-radioactive cell proliferation assay; type: functional, cell-based
[12] = test system: MV4-11; experiment: Antiproliferative activity against human MV411 cells measured after 168 hrs by CellTiter96 Aqueous non-radioactive cell proliferation assay; type: functional, cell-based; conditions: MV4-11, 168 h
[13] = test system: RPMI-8226; experiment: Antitumour activity against human RPMI8226 cells xenografted in CB-17 SCID mouse assessed as inhibition of tumour growth at 60 mg/kg/day, po measured twice a week for 21 days relative to control; type: functional; design: scale not given: the % may be the effect or the level left
[14] = AUC (infinity) in BALB/c mouse at 20 mg/kg, po and measured up to 24 hrs by LC-MS/MS analysis; type: ADME, organism-based; design: dose 20 mg/kg, route oral, time infinity; conditions: in vivo
[15] = Volume of distribution at steady state in BALB/c mouse at 5 mg/kg, iv and measured up to 24 hrs by LC-MS/MS analysis; type: ADME, organism-based; conditions: in vivo, read-out: Vdss
[16] = AUC (infinity) in BALB/c mouse at 5 mg/kg, iv and measured up to 24 hrs by LC-MS/MS analysis; type: ADME, organism-based; design: dose 5 mg/kg, route intravenous, time infinity; conditions: in vivo
[17] = Half-life in BALB/c mouse at 5 mg/kg, iv and measured up to 24 hrs by LC-MS/MS analysis; type: ADME, organism-based; conditions: in vivo
[18] = Toxicity in CB-17 SCID mouse xenografted with human RPMI8226 cells assessed as body weight at 60 mg/kg/day, po and measured after day 18 (reference value: 20.1 to 20.4 g); type: organism-based; conditions: in vivo
[19] = Cmax in BALB/c mouse at 20 mg/kg, po and measured up to 24 hrs by LC-MS/MS analysis; type: ADME, organism-based; design: dose 20 mg/kg, route oral; conditions: in vivo
[20] = MRT (infinity) in BALB/c mouse at 5 mg/kg, iv and measured up to 24 hrs by LC-MS/MS analysis; type: ADME, organism-based; conditions: in vivo
[21] = Toxicity in CB-17 SCID mouse xenografted with human RPMI8226 cells assessed as increase in body weight at 60 mg/kg/day, po and measured after day 18 (reference value: 13.4%); type: organism-based; conditions: in vivo
[22] = Terminal elimination half life in BALB/c mouse at 20 mg/kg, po and measured up to 24 hrs by LC-MS/MS analysis; type: ADME, organism-based; conditions: in vivo, read-out: LambdaZ (converted)
[23] = Oral bioavailability in BALB/c mouse at 20 mg/kg and measured up to 24 hrs by LC-MS/MS analysis; type: ADME, organism-based; conditions: in vivo
[24] = test system: RPMI-8226; experiment: Antitumour activity against human RPMI8226 cells xenografted in CB-17 SCID mouse assessed as relative tumour volume at 60 mg/kg/day, po measured twice a week for 21 days; type: functional
[25] = Clearance in BALB/c mouse at 5 mg/kg, iv and measured up to 24 hrs by LC-MS/MS analysis; type: ADME, organism-based; conditions: in vivo
[26] = Tmax in BALB/c mouse at 20 mg/kg, po and measured up to 24 hrs by LC-MS/MS analysis; type: ADME, organism-based; conditions: in vivo
[27] = Toxicity in CB-17 SCID mouse xenografted with human RPMI8226 cells assessed as mortality at 60 mg/kg/day, po and measured after day 18; type: organism-based; conditions: in vivo
[28] = test system: RPMI-8226; experiment: Antitumour activity against human RPMI8226 cells xenografted in CB-17 SCID mouse assessed as tumour volume at 60 mg/kg/day, po measured after day 18 (reference value: 153 to 154 mm3); type: functional

## Nc1cccc2c1C(=O)N(C1CCC(=O)NC1=O)C2 (stereo not drawn)
[1]
  pIC50: < 4.00

## Nc1ccc2c(c1)C(=O)N(C1CCC(=O)NC1=O)C2 (stereo not drawn)
[1]
  pIC50: < 4.00

## Nc1ccc2c(c1)CN(C1CCC(=O)NC1=O)C2=O (stereo not drawn)
[1]
  pIC50: < 4.00

## Cc1ccc(NC(=O)NCc2ccc3c(c2)CN(C2CCC(=O)NC2=O)C3=O)cc1Cl (stereo not drawn)
[2]
  pIC50: 8.82
[3]
  pIC50: 9.52
[4]
  pIC50: 7.69
[5]
  pIC50: 9.10
[6]
  pIC50: 9.52
[7]
  pIC50: 8.92
[8]
  pIC50: 9.40
[9]
  pIC50: 8.26
[10]
  pIC50: 8.70
[11]
  pIC50: 9.40
[12]
  pIC50: 9.70

## N#Cc1ccc(CSc2cccc3c2CN(C2CCC(=O)NC2=O)C3=O)cc1 (stereo not drawn)
[2]
  pIC50: < 4.70
[3]
  pIC50: < 4.70
[4]
  pIC50: < 4.70
[5]
  pIC50: < 4.70
[6]
  pIC50: 8.89
[7]
  pIC50: < 4.70
[8]
  pIC50: < 4.70
[9]
  pIC50: 6.70
[10]
  pIC50: < 4.70
[11]
  pIC50: 8.43
[12]
  pIC50: < 4.70

## NC(=O)c1ccc(CSc2cccc3c2CN(C2CCC(=O)NC2=O)C3=O)cc1 (stereo not drawn)
[11]
  pIC50: 7.45

## O=C1CCC(N2Cc3c(SCc4ccc(Cl)cc4)cccc3C2=O)C(=O)N1 (stereo not drawn)
[13]
  Activity: 52.31%
[14]
  AUC(0-inf): 755 ng·h/mL
[2]
  pIC50: < 4.70
[15]
  Vd: 11.1 L/kg
[3]
  pIC50: < 4.70
[4]
  pIC50: < 4.70
[5]
  pIC50: < 4.70
[6]
  pIC50: 8.96
[7]
  pIC50: < 4.70
[16]
  AUC(0-inf): 428 ng·h/mL
[8]
  pIC50: < 4.70
[9]
  pIC50: 8.26
[17]
  half-life: 113 min
[18]
  Activity: 22.4 g
[19]
  Cmax: 283 ng/mL
[10]
  pIC50: < 4.70
[20]
  MRT inf: 56.4 min
[21]
  Activity: 9.8%
[11]
  pIC50: 8.64
[12]
  pIC50: < 4.70
[22]
  half-life: 107 min
[23]
  bioavailability: 39.2%
[24]
  fold change (FC): 6.62
[25]
  clearance: 196 mL/min/kg
[26]
  Tmax: 49.8 min
[27]
  Activity: Non-Toxic
[28]
  Activity: 1022 mm3

## COC(=O)c1ccc(CSc2cccc3c2CN(C2CCC(=O)NC2=O)C3=O)cc1 (stereo not drawn)
[11]
  pIC50: 8.13

## O=C1CCC(N2Cc3c(SCc4cccc(F)c4)cccc3C2=O)C(=O)N1 (stereo not drawn)
[6]
  pIC50: 9.05
[11]
  pIC50: 8.37
[12]
  pIC50: < 4.70

## CC(C)(C)OC(=O)c1ccc(CSc2cccc3c2CN(C2CCC(=O)NC2=O)C3=O)cc1 (stereo not drawn)
[11]
  pIC50: 8.96

## CC1CC(C)CN(C(=O)c2ccc(CSc3cccc4c3CN(C3CCC(=O)NC3=O)C4=O)cc2)C1 (stereo not drawn)
[11]
  pIC50: 8.22

## O=C1CCC(N2Cc3c(SCc4cccc(Cl)c4)cccc3C2=O)C(=O)N1 (stereo not drawn)
[6]
  pIC50: 8.96
[11]
  pIC50: 8.62
[12]
  pIC50: < 4.70

## N#Cc1cccc(CSc2cccc3c2CN(C2CCC(=O)NC2=O)C3=O)c1 (stereo not drawn)
[6]
  pIC50: 8.85
[11]
  pIC50: 8.10
[12]
  pIC50: < 4.70

## O=C1CCC(N2Cc3c(SCc4ccc(C(=O)N5CCOCC5)cc4)cccc3C2=O)C(=O)N1 (stereo not drawn)
[11]
  pIC50: 8.72

## O=C1CCC(N2Cc3c(SCc4ccccc4Cl)cccc3C2=O)C(=O)N1 (stereo not drawn)
[6]
  pIC50: 8.96
[11]
  pIC50: 7.94
[12]
  pIC50: < 4.70

## O=C1CCC(N2Cc3c(SCc4ccc(CN5CCOCC5)cc4)cccc3C2=O)C(=O)N1 (stereo not drawn)
[14]
  AUC(0-inf): 288 ng·h/mL
[15]
  Vd: 4.69 L/kg
[16]
  AUC(0-inf): 397 ng·h/mL
[17]
  half-life: 52.8 min
[19]
  Cmax: 496 ng/mL
[20]
  MRT inf: 22.2 min
[11]
  pIC50: 8.48
[22]
  half-life: 85.8 min
[23]
  bioavailability: 17.6%
[25]
  clearance: 210 mL/min/kg
[26]
  Tmax: 8.4 min

## CCCCCSc1cccc2c1CN(C1CCC(=O)NC1=O)C2=O (stereo not drawn)
[6]
  pIC50: 8.96
[11]
  pIC50: 6.80
[12]
  pIC50: < 4.70
